{"source": "patent US8535928B2", "about": "“Protease and use thereof” (Osaka University, priority 2008, dated 2013)", "target": "T1, Thermococcus kodakaraensis KOD1 protease Tk-SP (mature subtilisin-like serine protease, SEQ ID NO: 1 or SEQ ID NO: 3) (Thermococcus kodakarensis, UniProt Q5JIZ5)", "T1 construct": "C-terminus at 562 or 563", "T1 sequence (Q5JIZ5 137-562)": "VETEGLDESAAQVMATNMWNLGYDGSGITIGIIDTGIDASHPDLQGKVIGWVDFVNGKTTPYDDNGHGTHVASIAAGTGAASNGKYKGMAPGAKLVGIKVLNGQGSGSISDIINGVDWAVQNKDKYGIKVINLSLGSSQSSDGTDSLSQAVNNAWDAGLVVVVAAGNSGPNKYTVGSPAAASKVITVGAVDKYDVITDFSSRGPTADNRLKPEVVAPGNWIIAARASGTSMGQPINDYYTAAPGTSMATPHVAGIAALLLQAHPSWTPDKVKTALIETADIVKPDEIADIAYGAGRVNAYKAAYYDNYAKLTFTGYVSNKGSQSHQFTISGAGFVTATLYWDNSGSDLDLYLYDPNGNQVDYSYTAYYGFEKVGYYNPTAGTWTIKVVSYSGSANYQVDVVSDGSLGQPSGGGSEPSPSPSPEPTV", "assay": "Rate parameters of Tk-SP with Suc-AAPF-pNA (Michaelis-Menten)", "format": "biochemical", "procedure": "For examination of the pH dependence and the buffer dependence of the Tk-SP, enzyme reactions were performed using acetate buffers (pH 4.5, 5.0, 5.2, 5.4 and 5.6), MES buffers (pH 5.5, 6.0, 6.5 and 7.0), HEPES buffers (pH 7.0 and 7.5), Tris-HCl buffers (pH 7.0, 7.5, 8.0, 8.5 and 9.0), glycine-NaOH buffers (pH 8.5, 9.0, 9.5 and 10.0) and CAPS-NaOH buffers (pH 9.0, 9.5, 10.0, 10.5, 11.0 and 11.5) in the following procedure. 100 μl of a reaction mixture containing a 50 mM buffer and 2 mM Suc-AAPF-pNA (synthetic substrate) was incubated at 20° C. for 5 minutes. To this, 0.1 μg of the Tk-SP was added and the reaction mixture was further incubated at 20° C. for 10 minutes. The reaction was stopped by addition of 10 μl of acetic acid, and then the amount of p-nitroaniline produced from the synthetic substrate Suc-AAPF-pNA was determined by use of the absorption coefficient of 8900 M^−1 cm^−1 from the absorbance at 410 nm in an ultraviolet spectrophotometer (Beckman model DU640). The amount of the enzyme which catalyzes the production of 1 μmol of p-nitroaniline per minute was defined as “one unit.” The enzyme activity per milligram of the protein was defined as specific activity.\nBy use of, as a substrate, Suc-AAPF-pNA at various concentrations ranging from 0.01 to 2 mM, the specific activity of the Tk-SP was measured at 20 and 80° C. The measurement procedure was the same as that of Example 2. The obtained values were applied to the Michaelis-Menten equation for calculation of the rate parameters. For comparison, the specific activity of a known thermostable protease, Tk-subtilisin (see nonpatent literature 1) was similarly measured and then the rate parameters thereof were calculated.", "note": "Starred links: 1 amine or outer side, 2 acyl side, 3 side chain; linkers in the order of their positions; H or OH if unused. Residues, ends and D or L forms follow the SMILES beside them. *: point of attachment. pNA = O=[N+]([O-])c1ccc(N*)cc1; Suc = O=C(CCC(=O)[*:2])[*:1]", "data": [{"smiles": "C[C@H](NC(=O)CCC(=O)O)C(=O)N[C@@H](C)C(=O)N1CCC[C@H]1C(=O)N[C@@H](Cc1ccccc1)C(=O)Nc1ccc([N+](=O)[O-])cc1", "note": "[Suc-AAPF-pNA] (Suc-AAPF-pNA)", "values": [{"measurement": "Km value relative to the Km value of Tk-subtilisin", "setting": "80° C.", "value": "about 1/10"}, {"measurement": "Km", "setting": "80° C., substrate 0.01 to 2 mM", "value": "100 to 1000", "unit": "µM"}, {"measurement": "Km value compared with that of Tk-subtilisin", "setting": "at either temperature (20 and 80° C.)", "value": "smaller than that of Tk-subtilisin"}]}]}
